According to article PMC4858680, “A platinum-based hybrid drug design approach to circumvent acquired resistance to molecular targeted tyrosine kinase inhibitors” (Scientific Reports, 2016):

What was measured:
[1] = target: ABL1(E255K)-phosphorylated (Homo sapiens, UniProt P00519, E255K); assay: biochemical; details: read-out: Percent control
[2] = target: T1, ABL1(F317L)-nonphosphorylated (Homo sapiens, UniProt P00519, F317L); assay: biochemical; details: read-out: Percent control
[3] = target: ABL1(Q252H)-phosphorylated (Homo sapiens, UniProt P00519, Q252H); assay: biochemical; details: read-out: Percent control
FGFR3 = FGFR3 (Homo sapiens, UniProt P22607); assay: biochemical; details: read-out: Percent control
Chain of FGFR3 (P22607 23-806): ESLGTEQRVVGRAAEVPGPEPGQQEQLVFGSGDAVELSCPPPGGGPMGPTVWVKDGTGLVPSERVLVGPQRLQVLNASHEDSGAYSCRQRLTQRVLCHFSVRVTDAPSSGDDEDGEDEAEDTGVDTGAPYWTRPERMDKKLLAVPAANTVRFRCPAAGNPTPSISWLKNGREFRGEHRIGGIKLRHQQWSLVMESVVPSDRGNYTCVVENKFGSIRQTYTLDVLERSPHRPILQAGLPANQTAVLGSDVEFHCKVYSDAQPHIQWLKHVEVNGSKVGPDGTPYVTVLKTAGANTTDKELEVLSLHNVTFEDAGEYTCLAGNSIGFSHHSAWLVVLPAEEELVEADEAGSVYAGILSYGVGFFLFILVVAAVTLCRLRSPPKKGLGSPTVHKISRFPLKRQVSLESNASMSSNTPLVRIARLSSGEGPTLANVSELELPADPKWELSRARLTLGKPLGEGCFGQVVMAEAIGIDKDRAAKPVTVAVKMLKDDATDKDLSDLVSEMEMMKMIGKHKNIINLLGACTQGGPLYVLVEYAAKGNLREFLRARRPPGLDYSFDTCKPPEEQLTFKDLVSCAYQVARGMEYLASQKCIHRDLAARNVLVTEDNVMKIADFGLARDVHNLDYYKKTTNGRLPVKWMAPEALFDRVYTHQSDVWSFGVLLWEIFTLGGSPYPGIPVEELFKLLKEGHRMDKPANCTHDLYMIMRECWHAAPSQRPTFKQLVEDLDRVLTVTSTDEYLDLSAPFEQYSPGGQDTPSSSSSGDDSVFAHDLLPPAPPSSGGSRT

[4] = target: T2, ABL1(M351T)-phosphorylated (Homo sapiens, UniProt P00519, M351T); assay: biochemical; details: read-out: Percent control
[5] = target: ABL1(E317I)-nonphosphorylated (Homo sapiens, UniProt P00519, F317I); assay: biochemical; details: read-out: Percent control
[6] = target: T3, ABL1(H396P)-nonphosphorylated (Homo sapiens, UniProt P00519, H396P); assay: biochemical; details: read-out: Percent control
P-gp = P-gp (Homo sapiens, UniProt P08183); assay: in vitro; details: dog, MDCK-MDR1, pH 7.4
Chain of P-gp (P08183 whole entry): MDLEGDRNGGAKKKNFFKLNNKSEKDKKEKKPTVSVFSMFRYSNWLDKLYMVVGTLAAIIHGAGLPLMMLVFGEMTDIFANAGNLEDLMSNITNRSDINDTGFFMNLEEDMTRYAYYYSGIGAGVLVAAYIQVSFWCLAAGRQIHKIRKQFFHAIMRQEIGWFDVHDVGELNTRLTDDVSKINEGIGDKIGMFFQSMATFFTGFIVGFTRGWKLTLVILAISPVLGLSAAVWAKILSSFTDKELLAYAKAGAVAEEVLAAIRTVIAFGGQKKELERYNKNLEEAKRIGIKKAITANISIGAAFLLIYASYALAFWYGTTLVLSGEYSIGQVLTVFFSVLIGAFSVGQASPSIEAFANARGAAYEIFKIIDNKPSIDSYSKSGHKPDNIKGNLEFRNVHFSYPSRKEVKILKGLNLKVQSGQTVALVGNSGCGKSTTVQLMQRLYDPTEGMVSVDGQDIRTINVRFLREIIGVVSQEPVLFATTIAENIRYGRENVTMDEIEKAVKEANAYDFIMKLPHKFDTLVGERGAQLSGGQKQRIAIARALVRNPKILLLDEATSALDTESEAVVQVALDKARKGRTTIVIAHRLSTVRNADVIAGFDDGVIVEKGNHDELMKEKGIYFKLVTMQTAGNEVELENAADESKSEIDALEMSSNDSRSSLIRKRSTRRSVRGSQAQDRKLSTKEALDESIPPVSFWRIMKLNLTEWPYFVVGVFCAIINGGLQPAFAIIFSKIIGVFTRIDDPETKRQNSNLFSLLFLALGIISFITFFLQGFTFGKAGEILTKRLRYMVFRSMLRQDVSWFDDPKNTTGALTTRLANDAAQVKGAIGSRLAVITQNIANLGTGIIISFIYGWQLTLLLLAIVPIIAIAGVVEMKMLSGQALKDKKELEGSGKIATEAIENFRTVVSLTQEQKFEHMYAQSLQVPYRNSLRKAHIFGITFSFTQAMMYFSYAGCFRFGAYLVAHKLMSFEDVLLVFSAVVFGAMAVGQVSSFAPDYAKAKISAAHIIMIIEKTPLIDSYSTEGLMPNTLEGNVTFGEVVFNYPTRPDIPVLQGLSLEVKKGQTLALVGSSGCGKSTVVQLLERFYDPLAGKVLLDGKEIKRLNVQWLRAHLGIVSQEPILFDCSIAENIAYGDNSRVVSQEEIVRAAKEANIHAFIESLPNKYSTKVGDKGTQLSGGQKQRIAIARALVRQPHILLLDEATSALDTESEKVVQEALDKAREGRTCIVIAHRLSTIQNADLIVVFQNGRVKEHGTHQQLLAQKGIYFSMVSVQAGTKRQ

FLT3(K663D) = target: T4, FLT3(K663D) (Homo sapiens, UniProt P36888, K663Q); assay: biochemical; details: read-out: Percent control
T4 sequence (P36888 564-993 K663Q limits assumed): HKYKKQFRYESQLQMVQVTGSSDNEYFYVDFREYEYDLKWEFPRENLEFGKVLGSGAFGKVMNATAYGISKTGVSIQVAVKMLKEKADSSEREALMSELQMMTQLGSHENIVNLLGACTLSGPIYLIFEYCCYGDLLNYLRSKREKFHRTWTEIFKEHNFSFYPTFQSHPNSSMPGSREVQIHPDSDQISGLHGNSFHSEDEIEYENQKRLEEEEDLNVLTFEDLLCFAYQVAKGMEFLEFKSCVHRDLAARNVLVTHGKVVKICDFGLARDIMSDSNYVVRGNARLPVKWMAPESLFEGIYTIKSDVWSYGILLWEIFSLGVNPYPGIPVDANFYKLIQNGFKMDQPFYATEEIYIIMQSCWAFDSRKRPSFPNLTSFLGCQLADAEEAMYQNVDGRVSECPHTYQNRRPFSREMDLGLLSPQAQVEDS

ALK = ALK (Homo sapiens, UniProt Q9UM73); assay: biochemical; details: read-out: Percent control
[7] = target: ABL1(F317I)-phosphorylated (Homo sapiens, UniProt P00519, F317I); assay: biochemical; details: read-out: Percent control
EGFR(T790M) [8] = target: T5, EGFR(T790M) (Homo sapiens, UniProt P00533, T790M); details: 10 μM
T5 sequence (P00533 25-1210 T790M): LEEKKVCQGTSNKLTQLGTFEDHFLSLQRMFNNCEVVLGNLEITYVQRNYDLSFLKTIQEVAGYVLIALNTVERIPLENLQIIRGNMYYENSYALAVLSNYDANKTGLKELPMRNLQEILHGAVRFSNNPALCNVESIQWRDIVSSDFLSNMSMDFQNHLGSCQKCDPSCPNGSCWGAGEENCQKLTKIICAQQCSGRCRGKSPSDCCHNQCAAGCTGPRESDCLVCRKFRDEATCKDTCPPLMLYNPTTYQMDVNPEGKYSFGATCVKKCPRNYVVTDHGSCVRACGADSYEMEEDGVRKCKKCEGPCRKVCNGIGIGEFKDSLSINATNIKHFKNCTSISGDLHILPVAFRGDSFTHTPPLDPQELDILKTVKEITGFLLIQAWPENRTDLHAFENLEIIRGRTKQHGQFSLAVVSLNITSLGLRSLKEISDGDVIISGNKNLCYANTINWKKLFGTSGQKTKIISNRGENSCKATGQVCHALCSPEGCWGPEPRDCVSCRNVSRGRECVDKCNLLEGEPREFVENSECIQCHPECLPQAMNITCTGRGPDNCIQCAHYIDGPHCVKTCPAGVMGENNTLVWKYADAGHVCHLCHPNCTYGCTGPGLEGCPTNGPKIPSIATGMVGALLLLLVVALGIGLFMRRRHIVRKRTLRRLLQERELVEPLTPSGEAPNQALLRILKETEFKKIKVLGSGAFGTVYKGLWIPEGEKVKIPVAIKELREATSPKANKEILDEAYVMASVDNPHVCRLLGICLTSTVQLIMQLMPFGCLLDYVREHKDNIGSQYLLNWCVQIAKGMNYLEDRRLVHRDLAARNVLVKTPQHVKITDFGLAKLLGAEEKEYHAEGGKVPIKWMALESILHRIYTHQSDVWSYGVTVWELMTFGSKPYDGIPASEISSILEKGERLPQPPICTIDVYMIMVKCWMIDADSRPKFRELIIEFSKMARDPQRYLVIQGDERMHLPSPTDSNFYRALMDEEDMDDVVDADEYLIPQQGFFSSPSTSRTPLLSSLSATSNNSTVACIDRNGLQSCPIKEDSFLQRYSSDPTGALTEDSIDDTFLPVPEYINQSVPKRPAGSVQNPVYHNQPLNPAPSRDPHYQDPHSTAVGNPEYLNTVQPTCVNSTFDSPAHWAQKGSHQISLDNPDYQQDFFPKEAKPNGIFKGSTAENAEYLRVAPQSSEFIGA

TIE1 = target: T6, TIE1 (Homo sapiens, UniProt P35590); format: binding; details: 10 μM
T6 construct: purchased DiscoveRx (KINOMEscan service)
T6 sequence (P35590 22-1138): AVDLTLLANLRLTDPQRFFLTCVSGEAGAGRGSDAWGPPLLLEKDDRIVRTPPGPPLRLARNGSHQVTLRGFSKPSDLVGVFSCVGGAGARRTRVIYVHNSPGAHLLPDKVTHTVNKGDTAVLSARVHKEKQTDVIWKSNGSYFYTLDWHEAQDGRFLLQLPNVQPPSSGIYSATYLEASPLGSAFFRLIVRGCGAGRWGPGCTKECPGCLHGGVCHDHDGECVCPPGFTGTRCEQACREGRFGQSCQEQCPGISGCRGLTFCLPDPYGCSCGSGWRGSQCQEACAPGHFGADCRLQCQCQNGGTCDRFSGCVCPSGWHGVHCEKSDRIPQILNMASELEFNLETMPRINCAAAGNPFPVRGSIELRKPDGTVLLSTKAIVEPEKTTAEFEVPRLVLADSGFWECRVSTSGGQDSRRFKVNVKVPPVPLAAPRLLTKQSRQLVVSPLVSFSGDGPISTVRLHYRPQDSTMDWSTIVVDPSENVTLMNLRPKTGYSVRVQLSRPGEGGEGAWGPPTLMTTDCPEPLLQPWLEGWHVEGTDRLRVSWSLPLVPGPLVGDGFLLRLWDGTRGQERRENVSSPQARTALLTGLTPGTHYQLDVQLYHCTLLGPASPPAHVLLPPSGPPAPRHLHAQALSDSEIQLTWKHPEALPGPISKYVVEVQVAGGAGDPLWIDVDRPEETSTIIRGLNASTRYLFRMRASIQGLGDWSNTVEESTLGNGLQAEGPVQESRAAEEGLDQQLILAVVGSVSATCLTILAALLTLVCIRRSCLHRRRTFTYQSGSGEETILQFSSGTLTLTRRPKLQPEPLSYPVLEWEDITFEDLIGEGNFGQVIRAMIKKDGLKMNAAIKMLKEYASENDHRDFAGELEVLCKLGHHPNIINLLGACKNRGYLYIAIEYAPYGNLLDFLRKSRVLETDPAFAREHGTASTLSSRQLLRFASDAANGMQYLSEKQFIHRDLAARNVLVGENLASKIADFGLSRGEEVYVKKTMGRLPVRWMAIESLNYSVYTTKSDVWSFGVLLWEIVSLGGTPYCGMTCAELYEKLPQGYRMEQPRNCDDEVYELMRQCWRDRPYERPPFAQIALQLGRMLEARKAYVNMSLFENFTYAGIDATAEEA

EGFR(L861Q) = EGFR(L861Q) (Homo sapiens, UniProt P00533, L861Q); details: 10 μM
FRK = FRK (Homo sapiens, UniProt P42685); assay: biochemical; details: read-out: Percent control
Chain of FRK (P42685 whole entry): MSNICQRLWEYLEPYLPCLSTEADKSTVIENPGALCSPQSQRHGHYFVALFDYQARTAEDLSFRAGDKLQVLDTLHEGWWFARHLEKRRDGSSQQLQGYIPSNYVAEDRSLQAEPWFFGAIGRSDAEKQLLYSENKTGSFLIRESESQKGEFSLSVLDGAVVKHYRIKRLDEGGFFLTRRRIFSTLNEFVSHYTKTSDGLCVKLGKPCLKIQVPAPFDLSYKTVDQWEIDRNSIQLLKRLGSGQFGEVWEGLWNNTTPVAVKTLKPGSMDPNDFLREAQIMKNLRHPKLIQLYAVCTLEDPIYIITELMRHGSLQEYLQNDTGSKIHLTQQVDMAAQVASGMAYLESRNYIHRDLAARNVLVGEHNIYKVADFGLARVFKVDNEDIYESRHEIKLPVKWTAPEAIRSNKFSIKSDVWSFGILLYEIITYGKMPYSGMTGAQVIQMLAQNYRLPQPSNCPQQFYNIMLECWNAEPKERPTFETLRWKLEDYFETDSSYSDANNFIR

HCC827 = assay: Anticancer activity (cytotoxicity) in NSCLC cell line; format: cell-based; details: Homo sapiens, HCC827, EGFR ΔE746-A750 (sensitizing)
TIE2 = TIE2 (Homo sapiens, UniProt Q02763); assay: biochemical; details: read-out: Percent control
[9] = Drug accumulation in organs of BALB/c mice; format: in vivo; details: intravenous 12.5 mg/kg, 30 min
[10] = target: T1, ABL1(F317L)-nonphosphorylated; details: 10 μM
[11] = target: T3, ABL1(H396P)-nonphosphorylated; details: 10 μM
[12] = target: ABL1(F317L)-phosphorylated (Homo sapiens, UniProt P00519, F317L); details: 10 μM
[13] = target: T2, ABL1(M351T)-phosphorylated; details: 10 μM
[14] = target: ABL1(Y253F)-phosphorylated (Homo sapiens, UniProt P00519, Y253F); details: 10 μM
EGFR(L858R) = EGFR(L858R) (Homo sapiens, UniProt P00533, L858R); assay: biochemical; details: read-out: Percent control
EGFR(T790M) [15] = target: T5, EGFR(T790M); assay: biochemical; details: read-out: Percent control

With C#Cc1cccc(Nc2ncnc3cc(OCCOC)c(OCCOC)cc23)c1 [Erlotinib] the remaining activity at 10 µM [1] was 0.6%, the remaining activity at 10 µM [2] was 6% and the remaining activity at 10 µM [3] was 0.6%. For the same compound, the remaining activity at 10 µM (FGFR3) was 100%, the remaining activity at 10 µM [4] was 0.7% and the remaining activity at 10 µM [5] was 45.1%. It also gave a remaining activity at 10 µM [6] of 0.9%, a Papp A→B at 120 min, 10 μM (P-gp) of 18.4 ×10⁻⁶ cm/s and a Papp B→A at 120 min, 10 μM (P-gp) of 74.2 ×10⁻⁶ cm/s. For the same compound, the remaining activity at 10 µM (FLT3(K663D)) was 11.5%, the remaining activity at 10 µM (ALK) was 10.7% and the remaining activity at 10 µM [7] was 9.9%.
Work on Cc1ccc(NC(=O)c2ccc(CN3CCN(C)CC3)cc2)cc1Nc1nccc(-c2cccnc2)[n+]1[Pt-2]1([Cl])[NH2+]C2CCCCC2[NH2+]1 (stereo not drawn) [1b, oxaliplatin-imatinib] yielded a Percent control (EGFR(T790M) [8]) of 78%, a Percent control (TIE1) of 100% and a Percent control (EGFR(L861Q)) of 42%.
COc1cc2c(Nc3ccc(Br)cc3F)ncnc2cc1OCC1CCN(C)CC1 [Vandetanib, reference compound] showed a remaining activity at 10 µM (FRK) of 1.7%, an IC50 (HCC827) of 11 ± 2 nM and a remaining activity at 10 µM (TIE2) of 9.1%.
With C#Cc1cccc(Nc2c3cc(OCCOC)c(OCCOC)cc3nc[n+]2[Pt@SP2-2]([NH3+])([NH3+])[Cl])c1 [2a, cisplatin-erlotinib] the “brain accumulation, times higher than that of cisplatin” value [9] was 7 times, the “brain accumulation, times higher than that of erlotinib” value [9] was > 3 times and the Percent control [10] was 61%. The Percent control [11] was 0.9%, the Percent control [12] was 25% and the Percent control [13] was 15%. The Percent control [14] was 16%.
Cc1ccc(NC(=O)c2ccc(CN3CCN(C)CC3)cc2)cc1Nc1nccc(-c2cccnc2)n1 [Imatinib, reference compound] gave a remaining activity at 10 µM (EGFR(L858R)) of 100% and a remaining activity at 10 µM (EGFR(T790M) [15]) of 100%.
